# Measured values from article PMC11988454, “Discovery of synthetic small molecules targeting the central regulator of Salmonella pathogenicity” (Science Advances, 2025).
# T1: HilE (Salmonella enterica subsp. enterica …)
# T1 chain: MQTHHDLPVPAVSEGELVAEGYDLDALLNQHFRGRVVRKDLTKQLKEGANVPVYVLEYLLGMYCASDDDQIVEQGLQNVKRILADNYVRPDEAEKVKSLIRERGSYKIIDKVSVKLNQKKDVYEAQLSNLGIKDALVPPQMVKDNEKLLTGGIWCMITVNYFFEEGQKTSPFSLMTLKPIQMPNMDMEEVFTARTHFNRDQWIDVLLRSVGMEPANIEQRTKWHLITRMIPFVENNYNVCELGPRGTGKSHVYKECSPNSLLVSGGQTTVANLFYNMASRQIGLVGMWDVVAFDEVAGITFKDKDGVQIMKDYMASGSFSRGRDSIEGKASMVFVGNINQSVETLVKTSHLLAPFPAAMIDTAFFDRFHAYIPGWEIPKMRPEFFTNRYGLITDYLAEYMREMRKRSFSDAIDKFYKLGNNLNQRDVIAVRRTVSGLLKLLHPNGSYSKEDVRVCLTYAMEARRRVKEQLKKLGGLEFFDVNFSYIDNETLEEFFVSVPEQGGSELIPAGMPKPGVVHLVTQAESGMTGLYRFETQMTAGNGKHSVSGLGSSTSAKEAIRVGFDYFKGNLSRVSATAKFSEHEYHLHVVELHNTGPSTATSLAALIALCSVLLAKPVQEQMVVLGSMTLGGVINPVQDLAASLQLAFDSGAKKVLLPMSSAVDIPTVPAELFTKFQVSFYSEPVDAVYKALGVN
# B1: HilD (natural protein)
# chain: MENVTFVSNSHQRPAADNLQKLKSLLTNTRQQIKSQTQQVTIKNLYVSSFTLVCFRSGKLTISNNHDTIYCDEPGMLVLKKEQVVNVTLEEVNGHMDFDILEIPTQRLGALYALIPNEQQTKMAVPTEKAQKIFYTPDFPARREVFEHLKTAFSCTKDTSKGCSNCNNKSCIENEELIPYFLLFLLTAFLRLPESYEIILSSAQITLKERVYNIISSSPSRQWKLTDVADHIFMSTSTLKRKLAEEGTSFSDIYLSARMNQAAKLLRIGNHNVNAVALKCGYDSTSYFIQCFKKYFKTTPSTFIKMANH
# notes: also called HilDWT; recombinant HilD; source: E. coli C41(DE3), purified (Ni-NTA, SUMO protease cleavage, second Ni-NTA, SEC)
# Assays:
# HilD [1] = target: T2, HilD (Salmonella typhimurium, UniProt E1WAC0); experiment: Whole-cell HilD activity assay (PhilA-sfGFP activation); type: cell-based, S. Typhimurium; conditions: for activity in PhilA activation assay, in words: CDCA: highest tested concentration 100 μM
# T2 construct: endogenous in cells; host or cells: S. Typhimurium SL1344 strain PhilA-sfGFP
# Procedure: A whole-cell reporter gene assay was used to quantify HilD transcriptional activity. Strain PhilA-sfGFP and the isogenic ΔhilD PhilA-sfGFP were used for this purpose. Cultures were performed in 1 ml of LB supplemented with 0.3 M NaCl. Compounds at different concentrations or 1% (v/v) DMSO were added to the corresponding tubes. Cultures were incubated at 37°C and 180 rpm for 5 hours. Cells were pelleted, resuspended in 100 μl of PBS, and then transferred into a 96-well black clear-bottom plate (Thermo Fisher Scientific, USA). Fluorescence intensity was measured with a Tecan Spark microplate reader with an excitation wavelength of 485 nm and an emission wavelength of 510 nm. Dose-response curves and IC50 values were calculated using CDD Vault.
# HilD [2] = target: T3, HilD (Salmonella typhimurium, UniProt P0CL08); experiment: nanoDSF thermal stability, HilD; type: binding, S. Typhimurium
# T3 construct: His6-SUMO (N, cleaved yes); made in house; host or cells: E. coli C41(DE3)
# Procedure: Thermal stability of proteins was determined using nanoDSF, with runs performed on a Prometheus NT.48 (NanoTemper Technologies). A twofold serial dilution series of C26 was prepared in DMSO. C26 was added to HilD or HilC (5 μM) in SEC buffer, giving a final DMSO concentration of 1% (v/v). Samples were incubated for >20 min at r.t. and centrifuged for 2 min prior to loading of standard capillaries (no. PR-C002). Samples were heated from 20° to 80°C with a temperature gradient of 0.5°C min^−1. Melting temperatures were calculated from changes in the fluorescence ratio (350/330 nm), using PR.Stability Analysis v1.0.3 and a temperature range of 40° to 70°C for curve fitting. Data analysis was performed using Prism 8.4 (GraphPad). The change in HilD melting temperature, Tm, was fitted as a function of ligand concentration, using Eqs. 1 and 2 to yield apparent affinity (Kd,app) values Tm{[L]0}=Tm,lower+(Tm,upper−Tm,lower)*(1−α{[L]0}) (1) α{[L]0}=[P]t−Kd−[L]t+{[P]t+[L]t+Kd,app}^2−{4[P]t[L]t}/2[P]t (2) where [P]t and [L]t are the total protein and ligand concentrations, respectively.
# HeLa cells = experiment: Cytotoxicity, CellTox Green Cytotoxicity Assay, HeLa; type: cell-based; conditions: exposure time 18 h
# Procedure: In vitro toxicity of compound C26 was assessed in HeLa cells (ATCC CCL-2) using the ApoTox-Glo Triplex Assay and in macrophages RAW 264.7-LgBiT using the CellTox Green Cytotoxicity Assay (Promega, USA) according to the manufacturer’s instructions. The screening of in vitro toxicity of the compound analogs was performed with the CellTox Green Cytotoxicity Assay (Promega, USA) according to the manufacturer’s instructions. Cells (10^4 cells per well) were seeded into a 96-well plate and incubated for 24 hours at 37°C, 5% (v/v) CO2. Cells were then treated with the compound at different concentrations or 1% (v/v) DMSO in Dulbecco’s modified Eagle’s medium (DMEM) without phenol red at the desired exposure time. Fluorescence intensity was measured with a TECAN Spark microplate reader. Cytotoxicity [relative fluorescence units (RFU)] and viability (RFU) values were plotted to calculate the TC50 using GraphPad Prism 10.1.1.
# Compound concentration (µM) […]
# in vitro cytotoxicity of C26 and analogs. Cytotoxicity assessed with CellTox™ Green Cytotoxicity Assay with an exposure time of 18 h. N = 3 biological replicates. Data were plotted and TC50 values were generated with GraphPad Prism 10.1.1.
# (1 picture or pasted object on this page, not shown here)
# HilD-HilE heterodimer = HilD-HilE heterodimer (Salmonella typhimurium, UniProt P0CL08); experiment: MST dimerization assay HilD-HilE; type: binding, S. Typhimurium; conditions: 100 μM compound
# Procedure: MST measurements for the binding of HilD to HilE were performed as previously described ([39]). In summary, enhanced yellow fluorescent protein (EYFP)-HilD (100 nM) was incubated with 100 μM either oleic acid or C26 [with a final concentration of 1% (v/v) DMSO] for 10 min at r.t. (22° to 25°C) and subsequently mixed 1:1 with varying concentrations of HilE. Samples were incubated together for 10 min at r.t., centrifuged for 5 min, and loaded to standard capillaries (NanoTemper Technologies GmbH, no. MO-K022). MST runs were performed at 25°C on a NanoTemper Monolith NT.115, with an excitation power of 60% and medium MST power. Data were analyzed using the MO.Affinity Analysis v2.3 software, and affinity constants were calculated using the Kd model.
# HilD dimer = target: T4, HilD dimer (Salmonella typhimurium, UniProt P0CL08); experiment: BS3 cross-linking of HilD; type: biochemical, S. Typhimurium; conditions: oleic acid 50 and 100 μM; C26 up to 200 μM
# T4 construct: His6-SUMO (N, cleaved yes); made in house; host or cells: E. coli C41(DE3)
# Procedure: BS^3 cross-linking of HilD was performed as previously described ([39]). In summary, HilD (10 μM) was first incubated with C26 or oleic acid in SEC buffer for 20 min at r.t., with a final DMSO concentration of 1% (v/v). HilD was then cross-linked by incubation with 0.2 mM BS^3 (Thermo Fisher Scientific, Pierce, A39266) at r.t. for 1 hour, before the reaction was quenched by the addition of 50 mM Tris (pH 7.5). Samples were analyzed using SDS-PAGE and visualized by silver staining.
# HilE [3] = target: T1, HilE; experiment: MST; 1% DMSO
# HilE [4] = target: T1, HilE; experiment: MST; 100 uM C26
# SEC-MALS = target: the molecule itself; experiment: SEC-MALS
Molecule,Kd (HilD [2]),IC50 (HilD [1]),TC50 cytotoxicity (HeLa cells),also measured
"C[C@H](CCC(=O)O)[C@H]1CC[C@H]2[C@@H]3[C@H](O)C[C@@H]4C[C@H](O)CC[C@]4(C)[C@H]3CC[C@]12C [CDCA, chenodeoxycholic acid, reference compound]",,,,"activity in PhilA activation assay, in words (HilD [1]): No activity"
CN(CC(=O)NCc1ccccc1)Cc1ccc(Br)s1 [SW-C103],28.8 µM,34.4 µM,> 100 µM,
CN(CC(=O)NCc1ccc2c(c1)OCO2)Cc1ccc(Br)cc1 [SW-C116],> 100 µM,68.3 µM,> 100 µM,
Cc1ccc(CN(C)CC(=O)NCc2ccc3c(c2)OCO3)s1 [SW-C153],8.8 µM,63.1 µM,> 100 µM,
"CN(CC(=O)NCc1ccc2c(c1)OCO2)Cc1ccccc1Br [SW-C165, N-(benzo[d][1,3]dioxol-5-ylmethyl)-2-[(2-bromobenzyl)(methyl)amino]acetamide]",> 100 µM,> 100 µM,> 100 µM,
"CN(CC(=O)NCc1ccc(O)c(O)c1)Cc1ccc(Br)s1 [SW-C170, 2-{[(5-Bromothiophen-2-yl)methyl](methyl)amino}-N-(3,4-dihydroxybenzyl)acetamide]",> 100 µM,> 100 µM,> 100 µM,"activity in PhilA activation assay, in words (HilD [1]): complete loss of activity"
"CN(CC(=O)NCc1ccc2c(c1)OC(F)(F)O2)Cc1ccc(Br)s1 [SW-C182, 2-{[(5-Bromothiophen-2-yl)methyl](methyl)amino}-N-[(2,2-difluorobenzo[d][1,3]dioxol-5-yl)methyl]acetamide]",2.7 µM,4.9 µM,49.9 µM,
"CN(CC(=O)NCc1ccc(Cl)cc1)Cc1ccc(Br)s1 [SW-C202, 2-{[(5-Bromothiophen-2-yl)methyl](methyl)amino}-N-(4-chlorobenzyl)acetamide]",4.1 µM,3.9 µM,87.3 µM,
"CN(CC(=O)NCc1ccc2c(c1)OCO2)Cc1ccc(Br)o1 [SW-C210, N-(benzo[d][1,3]dioxol-5-ylmethyl)-2-{[(5-bromofuran-2-yl)methyl](methyl)amino}acetamide]",> 100 µM,> 100 µM,> 100 µM,
"CN(CC(=O)NCc1cc(Cl)cc(Cl)c1)Cc1ccc(Br)s1 [SW-C250, 2-{[(5-Bromothiophen-2-yl)methyl](methyl)amino}-N-(3,5-dichlorobenzyl)acetamide]",1.8 µM,3.2 µM,> 100 µM,
"CCCCCCCCCCCCC/C=C\C(=O)O [c2-HDA, cis-2-hexadecenoic acid, reference compound]",,0.21 µM,,
"CCCCCCCC/C=C\CCCCCCCC(=O)O [oleic acid, reference compound]",,25.1 µM,,formation of HilD-HilE heterodimers (HilD-HilE heterodimer): disrupted the binding of HilE to HilD; levels of cross-linked HilD dimer (HilD dimer): Decreased levels of the cross-linked HilD dimer
"CCCCCC/C=C\CCCCCCCC(=O)O [palmitoleic acid, reference compound]",,25.8 µM,,
B1,,,,Kd (HilE [3]): 1.7 µM; Kd (HilE [4]): 1.71 µM; stoichiometry N (SEC-MALS): 2
